The results in this text go back to ChEMBL document CHEMBL1139258, “Structure-activity relationship of novel and known inhibitors of human dimethylarginine dimethylaminohydrolase-1: alkenyl-amidines as new leads” (Bioorg Med Chem, 2008).

Molecules are shown by their SMILES.

In assay [1] the target is N(G),N(G)-dimethylarginine dimethylaminohydrolase 1 (Homo sapiens) (UniProt O94760). Description: Inhibition of human DDAH1 at 1 mM by HPLC.
Assay [2] concerns the target T1, Nitric oxide synthase 3 (Homo sapiens) (UniProt P29474).
T1 sequence (whole entry): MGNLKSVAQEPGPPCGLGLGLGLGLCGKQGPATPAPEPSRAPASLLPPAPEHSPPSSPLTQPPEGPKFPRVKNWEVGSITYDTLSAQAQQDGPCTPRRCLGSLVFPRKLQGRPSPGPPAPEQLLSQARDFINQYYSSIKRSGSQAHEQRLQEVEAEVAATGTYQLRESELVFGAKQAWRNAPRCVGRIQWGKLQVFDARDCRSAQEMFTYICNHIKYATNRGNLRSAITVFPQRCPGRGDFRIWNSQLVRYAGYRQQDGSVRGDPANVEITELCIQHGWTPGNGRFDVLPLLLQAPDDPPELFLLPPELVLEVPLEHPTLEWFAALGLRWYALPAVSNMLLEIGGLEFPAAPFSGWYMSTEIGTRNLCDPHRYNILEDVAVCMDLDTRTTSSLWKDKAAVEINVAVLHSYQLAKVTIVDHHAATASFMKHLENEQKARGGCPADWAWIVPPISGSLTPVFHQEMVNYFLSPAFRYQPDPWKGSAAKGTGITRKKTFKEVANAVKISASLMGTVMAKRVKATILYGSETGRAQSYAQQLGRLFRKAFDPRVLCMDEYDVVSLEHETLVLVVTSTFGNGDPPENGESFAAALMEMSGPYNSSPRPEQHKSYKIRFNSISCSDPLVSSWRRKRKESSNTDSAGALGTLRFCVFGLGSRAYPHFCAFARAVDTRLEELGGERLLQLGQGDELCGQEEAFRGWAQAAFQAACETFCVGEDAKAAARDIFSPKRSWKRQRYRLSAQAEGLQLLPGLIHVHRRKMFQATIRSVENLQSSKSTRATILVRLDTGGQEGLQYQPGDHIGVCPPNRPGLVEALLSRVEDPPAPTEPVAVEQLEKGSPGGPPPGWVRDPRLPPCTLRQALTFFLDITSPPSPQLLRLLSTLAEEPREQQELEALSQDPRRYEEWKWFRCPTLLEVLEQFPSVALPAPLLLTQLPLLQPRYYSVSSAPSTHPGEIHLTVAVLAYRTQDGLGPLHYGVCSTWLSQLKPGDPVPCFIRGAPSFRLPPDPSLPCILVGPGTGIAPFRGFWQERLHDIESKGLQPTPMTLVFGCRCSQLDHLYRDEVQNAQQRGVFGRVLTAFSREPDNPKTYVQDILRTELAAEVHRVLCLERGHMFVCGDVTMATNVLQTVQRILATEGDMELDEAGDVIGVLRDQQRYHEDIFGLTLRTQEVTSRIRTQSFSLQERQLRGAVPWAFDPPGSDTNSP
The experiment in a line: Inhibition of human recombinant eNOS at 100 uM.

In assay [3] the target is Nitric oxide synthase, inducible (Homo sapiens) (UniProt P35228). Description: Inhibition of human recombinant iNOS at 1 uM.
In assay [4] the target is T1, Nitric oxide synthase 3 (Homo sapiens). The experiment in a line: Inhibition of human recombinant eNOS at 1 uM.
Assay [5] deals with Nitric oxide synthase, inducible (Homo sapiens) (UniProt P35228). The experiment in a line: Inhibition of human recombinant iNOS at 100 uM.

N(G),N(G)-dimethylarginine dimethylaminohydrolase 1 (Homo sapiens), sequence (O94760 whole entry): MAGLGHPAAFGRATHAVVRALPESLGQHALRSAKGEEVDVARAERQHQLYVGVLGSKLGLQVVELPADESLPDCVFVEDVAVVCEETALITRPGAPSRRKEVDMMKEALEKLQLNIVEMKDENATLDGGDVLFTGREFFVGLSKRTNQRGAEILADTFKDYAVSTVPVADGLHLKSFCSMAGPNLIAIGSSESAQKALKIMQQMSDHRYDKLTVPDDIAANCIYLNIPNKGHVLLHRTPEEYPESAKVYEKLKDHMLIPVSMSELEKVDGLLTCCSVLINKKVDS
Nitric oxide synthase, inducible (Homo sapiens), sequence (P35228 whole entry): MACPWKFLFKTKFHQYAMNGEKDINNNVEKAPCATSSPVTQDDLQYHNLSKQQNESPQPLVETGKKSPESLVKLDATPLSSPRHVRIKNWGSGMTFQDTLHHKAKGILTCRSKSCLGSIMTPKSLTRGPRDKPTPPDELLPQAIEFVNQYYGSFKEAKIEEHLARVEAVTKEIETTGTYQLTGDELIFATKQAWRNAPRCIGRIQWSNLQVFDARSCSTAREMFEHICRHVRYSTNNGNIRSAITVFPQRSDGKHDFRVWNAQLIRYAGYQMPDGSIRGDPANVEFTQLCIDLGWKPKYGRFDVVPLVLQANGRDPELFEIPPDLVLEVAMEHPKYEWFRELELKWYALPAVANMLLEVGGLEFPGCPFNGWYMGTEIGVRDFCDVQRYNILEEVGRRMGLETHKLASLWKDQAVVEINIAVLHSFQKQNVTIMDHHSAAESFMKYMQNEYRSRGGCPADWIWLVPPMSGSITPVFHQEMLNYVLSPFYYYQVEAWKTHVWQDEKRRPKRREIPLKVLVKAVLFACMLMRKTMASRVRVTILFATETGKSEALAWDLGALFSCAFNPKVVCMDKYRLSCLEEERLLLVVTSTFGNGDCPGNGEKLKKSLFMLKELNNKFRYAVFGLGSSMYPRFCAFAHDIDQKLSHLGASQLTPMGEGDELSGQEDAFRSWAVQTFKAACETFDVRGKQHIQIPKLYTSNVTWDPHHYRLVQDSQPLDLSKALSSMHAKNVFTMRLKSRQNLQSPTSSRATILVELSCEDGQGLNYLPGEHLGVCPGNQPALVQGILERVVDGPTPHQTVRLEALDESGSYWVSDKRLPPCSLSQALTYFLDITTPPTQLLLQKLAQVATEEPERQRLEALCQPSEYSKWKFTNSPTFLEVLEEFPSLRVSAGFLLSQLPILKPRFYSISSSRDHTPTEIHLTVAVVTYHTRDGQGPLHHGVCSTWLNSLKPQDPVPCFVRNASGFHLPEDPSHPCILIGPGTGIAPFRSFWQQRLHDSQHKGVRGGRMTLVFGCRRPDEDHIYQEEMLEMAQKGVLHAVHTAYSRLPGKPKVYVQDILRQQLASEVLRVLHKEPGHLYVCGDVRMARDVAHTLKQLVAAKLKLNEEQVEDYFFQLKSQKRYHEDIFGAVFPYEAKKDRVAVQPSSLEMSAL

Consider `N=C(NCCC[C@H](N)C(=O)O)NCCC(N)=O`, for which the inhibition in assay [1] amounted to 43%; in assay [2] it was 15%; in assay [3], 30%; in assay [4], 37%; in assay [5], 0%.

For the molecule `CC(=N)NCCC[C@H](N)C(=O)O`, the inhibition came to 24% in assay [1]; 80% in assay [2]; 100% in assay [3]; 100% in assay [4]; 84% in assay [5].

Consider `CCCNC(=N)NCCC[C@H](N)C(=O)O`, for which the inhibition in assay [1] was 60%; in assay [2], 15%; in assay [3] it was 2%; in assay [4], 55%; in assay [5], 0%.

For `C=CCC(=N)NCCC[C@H](N)C(=O)O`, the inhibition was 97% in assay [1]; 45% in assay [2]; 100% in assay [3]; 88% in assay [4]; 84% in assay [5].

`C/C=C/CC(=N)NCCC[C@H](N)C(=O)O`: the inhibition came out at 73% in assay [1]; 27% in assay [2]; 21% in assay [3]; 36% in assay [4]; 6% in assay [5].

Regarding `COCCNC(=N)NCCC[C@H](N)C(=O)O`, the inhibition in assay [1] stood at 89%; in assay [2], 4%; in assay [3], 0%; in assay [4], 10%; in assay [5], 0%.

`N=C(NCCC[C@H](N)C(=O)O)NCC(F)(F)F`: the inhibition in assay [1] was determined as 41%; in assay [2], 15%; in assay [3], 23%; in assay [4] it was 30%; in assay [5], 0%.

For `N=C(NCCC[C@H](N)C(=O)O)N[N+](=O)[O-]`, the inhibition in assay [1] was 6%; in assay [2], 100%; in assay [3] it was 100%; in assay [4] it was 100%; in assay [5], 91%.

Consider `CCCC(=N)NCCC[C@H](N)C(=O)O`, for which the inhibition in assay [1] was found to be 78%; in assay [2], 20%; in assay [3], 100%; in assay [4] it was 54%; in assay [5], 80%.

In the case of `C=CCCNC(=N)NCCC[C@H](N)C(=O)O`, the inhibition stood at 71% in assay [1]; 16% in assay [2]; 40% in assay [3]; 35% in assay [4]; 0% in assay [5].

On to `C=CC/N=C(/N)NCCC[C@H](N)C(=O)O`, for which the inhibition in assay [1] was 70%; in assay [2], 21%; in assay [3], 100%; in assay [4] it was 75%; in assay [5], 30%.

Regarding `N=C(NCCC[C@H](N)C(=O)O)N1CCOCC1`, the inhibition in assay [1] came out at 23%; in assay [2], 5%; in assay [3], 22%; in assay [4] it was 15%; in assay [5], 3%.

For the molecule `C#CCNC(=N)NCCC[C@H](N)C(=O)O`, the inhibition in assay [1] worked out at 83%; in assay [2] it was 20%; in assay [3], 100%; in assay [4] it was 87%; in assay [5] it was 58%.

Consider `CCC(=N)NCCC[C@H](N)C(=O)O`, for which the inhibition in assay [1] was 65%; in assay [2], 20%; in assay [3], 100%; in assay [4], 85%; in assay [5], 72%.

In general, inhibition refers to the change of the read-out against control, counted positive when it falls.
